Patent US10806783B2, “Vaccine compositions” (priority 2014, dated 2020)

System: Influenza virus
Assay type: in vivo
Settings: Example 4, FIG. 3; BALB-c mice, subcutaneous, day 0 and day 21; various time points; 2 μg antigen, freeze-dried and stored at 45° C.

`CN(C)CC(=O)O` [dimethylglycine, Dimethylglycine] was tested, and the “HIA titre (effect with different excipients)” value was “antigen sparing effect and acceleration of onset of immunity observed with polyethyleneimine are also observed”.
